Consider 25 compounds from patent publication US9913843B2, “Protein kinase C inhibitors and uses thereof” (Rigel Pharmaceuticals, Inc., priority 2012, dated 2018).

The test deals with PKC mediated IL-2 production in human primary T cells. As to the kind of experiment: IL-2 ELISA, human primary T cell, anti CD3+CD28+ (whole cell functional assay for PKC mediated IL-2 production). Format: cell-based. Summed up: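 IL-2 in supernatants was quantified by ELISA after 24 h at 37 °C. Before stimulation with plate-coated anti-CD3 (1 μg/ml) and anti-CD28 (5 μg/ml), T cells expanded from PBMC were exposed to compound for 1 h; the counter-screen replaced antibodies with PMA 0.5 ng/ml and ionomycin 0.1 μM (final).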
A general note: In an ELISA, binding on a coated surface is turned into a signal by an enzyme label.

The mark [1] stands for this setting: 24 h, human primary T cells stimulated with anti-CD3 + anti-CD28, IL-2 by ELISA, read-out: IC50 for blocking IL-2 production.
The mark [2] stands for this setting: human primary T cells stimulated with anti-CD3 + anti-CD28, 24 h, IL-2 by ELISA, 8 pt, read-out: IL2 ELISA, Human primary T cell, anti-CD3 + CD28, 8 pt (IC50).

Structures are written as SMILES. Where two headings read alike, the source gives them in different places.

Usually IC50 stands for the point on the concentration scale where inhibition reaches its midpoint. Turning to `COc1cc(Nc2ncc(OC)c(NC[C@@H]3CCCN4CCCC[C@H]34)n2)cc(OC)c1` [Compound 83, N4-(((1S,9aR)-octahydro-1H-quinolizin-1-yl)methyl)-5-methoxy-N2-(3,5-dimethoxyphenyl)pyrimidine-2,4-diamine], the IC50 under setting [1] was less than 30 µM and the IC50 under setting [2] turned out to be 3.87 µM.

Turning to `COc1cc(Nc2ncc(N(C)C)c(NC[C@@H]3CCCN4CCCC[C@H]34)n2)cc(-n2nnnc2C)c1` [Compound 91, N4-(((1S,9aR)-octahydro-1H-quinolizin-1-yl)methyl)-N2-(3-methoxy-5-(5-methyl-1H-tetrazol-1-yl)phenyl)-N5,N5-dimethylpyrimidine-2,4,5-triamine], the IC50 under setting [1] is less than 30 µM and the IC50 under setting [2] was found to be 7.94 µM.

Turning to `Cn1nnn(-c2cc(Nc3nccc(NC[C@@H]4CCCN5CCCC[C@H]45)n3)c(F)cc2C2CC2)c1=O` [Compound 48, 1-(5-(4-(((1S,9aR)-octahydro-1H-quinolizin-1-yl)methylamino)pyrimidin-2-ylamino)-2-cyclopropyl-4-fluorophenyl)-4-methyl-1H-tetrazol-5(4H)-one], the IC50 reads like this: under setting [1], less than 30 µM; under setting [2], 3.81 µM.

Consider `N#Cc1cc(Nc2nccc(NC[C@@H]3CCCN4CCCC[C@H]34)n2)ccc1C1CC1` [Compound 55, 5-(4-(((1S,9aR)-octahydro-1H-quinolizin-1-yl)methylamino)pyrimidin-2-ylamino)-2-cyclopropylbenzonitrile], for which the IC50 is less than 30 µM under setting [1] and 0.607 µM under setting [2].

Take `Fc1ccc(S(F)(F)(F)(F)F)cc1Nc1ncc(F)c(NC[C@@H]2CCCN3CCCC[C@H]23)n1` [Compound 29, 5-fluoro-N2-(3-pentafluorosulfanyl-6-fluoro-phenyl)-N4-(((1S,9aR)-octahydro-1H-quinolizin-1-yl)methyl)pyrimidine-2,4-diamine]: the IC50 was less than 30 µM under setting [1] and 1.8 µM under setting [2].

As to `COc1cc(Nc2ncc(C#N)c(NC[C@@H]3CCCN4CCCC[C@H]34)n2)cc(OC)c1` [Compound 121, 4-(((1S,9aR)-octahydro-1H-quinolizin-1-yl)methylamino)-2-(3,5-dimethoxyphenylamino)pyrimidine-5-carbonitrile], the 50% inhibitory concentration (IC50) was less than 30 µM under setting [1] and 0.141 µM under setting [2].

`Cc1ccc(Nc2ncc(C)c(NC[C@@H]3CCCN4CCCC[C@H]34)n2)cc1-n1cnnn1` [Compound 60, N4-(((1S,9aR)-octahydro-1H-quinolizin-1-yl)methyl)-5-methyl-N2-(4-methyl-3-(1H-tetrazol-1-yl)phenyl)pyrimidine-2,4-diamine]: the IC50 by setting is: under setting [1], less than 30 µM; under setting [2], 1.36 µM.

Consider `COc1ccc(Nc2ncc(C#N)c(NC[C@@H]3CCCN4CCCC[C@H]34)n2)cc1-n1nnnc1C` [Compound 113, 4-(((1S,9aR)-octahydro-1H-quinolizin-1-yl)methylamino)-2-(4-methoxy-3-(5-methyl-1H-tetrazol-1-yl)phenylamino)pyrimidine-5-carbonitrile], for which the IC50 by setting is: under setting [1], less than 30 µM; under setting [2], 0.018 µM.

On to `Cc1nnnn1-c1ccc(F)c(Nc2ncc(C(N)=O)c(NC[C@@H]3CCCN4CCCC[C@H]34)n2)c1` [Compound 127, 4-(((1S,9aR)-octahydro-1H-quinolizin-1-yl)methylamino)-2-(2-fluoro-5-(5-methyl-1H-tetrazol-1-yl)phenylamino)pyrimidine-5-carboxamide], for which the IC50 was less than 30 µM under setting [1] and 0.824 µM under setting [2].

Turning to `Cc1cnc(Nc2cc(-n3nnnc3C)ccc2F)nc1NC[C@@H]1CCCN2CCCC[C@H]12` [Compound 63, N2-(2-fluoro-5-(5-methyl-1H-tetrazol-1-yl)phenyl)-N4-(((1S,9aR)-octahydro-1H-quinolizin-1-yl)methyl)-5-methylpyrimidine-2,4-diamine], the IC50 reads like this: under setting [1], less than 30 µM; under setting [2], 1.16 µM.

As for `Cn1nnn(-c2cc(Nc3ncc(F)c(NC[C@@H]4CCCN5CCCC[C@H]45)n3)c(F)cc2C2CC2)c1=O` [Compound 3, 1-(5-(4-(((1S,9aR)-octahydro-1H-quinolizin-1-yl)methylamino)-5-fluoropyrimidin-2-ylamino)-2-cyclopropyl-4-fluorophenyl)-4-methyl-1H-tetrazol-5(4H)-one], the IC50 was less than 30 µM under setting [1] and 1.68 µM under setting [2].

On to `CC(O)COc1ccc(Nc2ncc(C#N)c(NC[C@@H]3CCCN4CCCC[C@H]34)n2)cc1C#N` (stereo partly drawn) [Compound 144, 2-((3-cyano-4-(2-hydroxypropoxy)phenyl)amino)-4-((((1S,9aR)-octahydro-2H-quinolizin-1-yl)methyl)amino)pyrimidine-5-carbonitrile], for which the IC50 under setting [1] was less than 30 µM and the IC50 under setting [2] came out at 12.4 µM.

As to `COc1ccc(Nc2ncc(Cl)c(NC[C@@H]3CCCN4CCCC[C@H]34)n2)cc1-n1nnnc1C` [Compound 37, 5-chloro-N4-(((1S,9aR)-octahydro-1H-quinolizin-1-yl)methyl)-N2-(4-methoxy-3-(5-methyl-1H-tetrazol-1-yl)phenyl)pyrimidine-2,4-diamine], the IC50 reads like this: under setting [1], less than 30 µM; under setting [2], 0.0872 µM.

As to `Fc1cc(C2CC2)c(-n2cnnn2)cc1Nc1ncc(Cl)c(NC[C@@H]2CCCN3CCCC[C@H]23)n1` [Compound 32, 5-chloro-N2-(4-cyclopropyl-2-fluoro-5-(1H-tetrazol-1-yl)phenyl)-N4-(((1S,9aR)-octahydro-1H-quinolizin-1-yl)methyl)pyrimidine-2,4-diamine], the IC50 under setting [1] is less than 30 µM and the IC50 under setting [2] worked out at 0.159 µM.

For `COc1cnc(Nc2cc(-n3nnnc3C)ccc2F)nc1NC[C@@H]1CCCN2CCCC[C@H]12` [Compound 76, N2-(2-fluoro-5-(5-methyl-1H-tetrazol-1-yl)phenyl)-N4-(((1S,9aR)-octahydro-1H-quinolizin-1-yl)methyl)-5-methoxypyrimidine-2,4-diamine], the IC50 by setting is: under setting [1], less than 30 µM; under setting [2], 6.45 µM.

For the compound `COc1cc(Nc2ncc(C)c(NC[C@@H]3CCCN4CCCC[C@H]34)n2)cc(-n2nnnc2C)c1` [Compound 65, N4-(((1S,9aR)-octahydro-1H-quinolizin-1-yl)methyl)-N2-(3-methoxy-5-(5-methyl-1H-tetrazol-1-yl)phenyl)-5-methylpyrimidine-2,4-diamine], the IC50 under setting [1] is less than 30 µM and the half-inhibitory concentration (IC50) under setting [2] was 0.0728 µM.

Consider `COc1cc(Nc2nccc(NC[C@@H]3CCCN4CCCC[C@H]34)n2)cc(OC)c1` [Compound 57, N4-(((1S,9aR)-octahydro-1H-quinolizin-1-yl)methyl)-N2-(3,5-dimethoxyphenyl)pyrimidine-2,4-diamine], for which the IC50 runs as follows: under setting [1], less than 30 µM; under setting [2], 3.59 µM.

As for `COc1ccc(Nc2nccc(NC[C@@H]3CCCN4CCCC[C@H]34)n2)cc1-n1nnnc1C` [Compound 51, N4-(((1S,9aR)-octahydro-1H-quinolizin-1-yl)methyl)-N2-(4-methoxy-3-(5-methyl-1H-tetrazol-1-yl)phenyl)pyrimidine-2,4-diamine], the IC50 is, setting by setting: under setting [1], less than 30 µM; under setting [2], 0.531 µM.

`Fc1cc(Nc2ncc(F)c(NC[C@@H]3CCCN4CCCC[C@H]34)n2)cc(S(F)(F)(F)(F)F)c1` [Compound 30, 5-fluoro-N2-(3-pentafluorosulfanyl-5-fluoro-phenyl)-N4-(((1S,9aR)-octahydro-1H-quinolizin-1-yl)methyl)pyrimidine-2,4-diamine]: the IC50 by setting is: under setting [1], less than 30 µM; under setting [2], 0.672 µM.

Regarding `N#Cc1cnc(Nc2ccc(OCCO)c(-n3cnnn3)c2)nc1NC[C@@H]1CCCN2CCCC[C@H]12` [Compound 140, 2-((4-(2-hydroxyethoxy)-3-(1H-tetrazol-1-yl)phenyl)amino)-4-((((1S,9aR)-octahydro-2H-quinolizin-1-yl)methyl)amino)pyrimidine-5-carbonitrile], the IC50 runs as follows: under setting [1], less than 30 µM; under setting [2], 0.0276 µM.

Regarding `N#Cc1cc(Nc2ncc(F)c(NC[C@@H]3CCCN4CCCC[C@H]34)n2)c(F)cc1C1CC1` [Compound 12, 5-(4-(((1S,9aR)-octahydro-1H-quinolizin-1-yl)methylamino)-5-fluoropyrimidin-2-ylamino)-2-cyclopropyl-4-fluorobenzonitrile], the IC50 runs as follows: under setting [1], less than 30 µM; under setting [2], 0.889 µM.

`Cc1ccc(Nc2ncc(N(C)C)c(NC[C@@H]3CCCN4CCCC[C@H]34)n2)cc1-n1cnnn1` [Compound 86, N4-(((1S,9aR)-octahydro-1H-quinolizin-1-yl)methyl)-N5,N5-dimethyl-N2-(4-methyl-3-(1H-tetrazol-1-yl)phenyl)pyrimidine-2,4,5-triamine]: the IC50 is, setting by setting: under setting [1], less than 30 µM; under setting [2], 11 µM.

On to `O=c1[nH]c2cc(Nc3ncc(Cl)c(NC[C@@H]4CCCN5CCCC[C@H]45)n3)ccc2o1` [Compound 44, 5-(4-(((1S,9aR)-octahydro-1H-quinolizin-1-yl)methylamino)-5-chloropyrimidin-2-ylamino)benzo[d]oxazol-2(3H)-one], for which the IC50 under setting [1] is less than 30 µM and the IC50 under setting [2] came out at 1.18 µM.

As to `COc1ccc(Nc2ncc(F)c(NC[C@@H]3CCCN4CCCC[C@H]34)n2)cc1-c1cnco1` [Compound 22, 5-fluoro-N4-(((1S,9aR)-octahydro-1H-quinolizin-1-yl)methyl)-N2-(4-methoxy-3-(oxazol-5-yl)phenyl)pyrimidine-2,4-diamine], the IC50 under setting [1] is less than 30 µM and the IC50 under setting [2] worked out at 0.697 µM.

On to `Cn1nnnc1Oc1cc(Nc2ncc(F)c(NC[C@@H]3CCCN4CCCC[C@H]34)n2)c(F)cc1C1CC1` [Compound 28, N2-(5-(1-methyl-1H-tetrazol-5-yloxy)-4-cyclopropyl-2-fluorophenyl)-5-fluoro-N4-(((1S,9aR)-octahydro-1H-quinolizin-1-yl)methyl)pyrimidine-2,4-diamine], for which the IC50 was less than 30 µM under setting [1] and 1.81 µM under setting [2].
